Data set [1] concerns the target T1, Acetylcholinesterase (Electrophorus electricus, UniProt O42275). Nature of the data set: Inhibition of electric eel AChE using acetylthiocholine iodide as substrate preincubated for 20 mins followed by substrate addition and measured every 20 secs for 3 mins by Ellman's method. In general terms: In Ellman's method for cholinesterases, released thiocholine reacts with DTNB.

In data set [2] the target is Cholinesterase (Equus caballus, UniProt P81908). In words: Inhibition of horse serum BuChE using butyrylthiocholine iodide as substrate preincubated for 20 mins followed by substrate addition and measured every 20 secs for 3 mins by Ellman's method.
Cholinesterase, sequence (P81908 whole entry): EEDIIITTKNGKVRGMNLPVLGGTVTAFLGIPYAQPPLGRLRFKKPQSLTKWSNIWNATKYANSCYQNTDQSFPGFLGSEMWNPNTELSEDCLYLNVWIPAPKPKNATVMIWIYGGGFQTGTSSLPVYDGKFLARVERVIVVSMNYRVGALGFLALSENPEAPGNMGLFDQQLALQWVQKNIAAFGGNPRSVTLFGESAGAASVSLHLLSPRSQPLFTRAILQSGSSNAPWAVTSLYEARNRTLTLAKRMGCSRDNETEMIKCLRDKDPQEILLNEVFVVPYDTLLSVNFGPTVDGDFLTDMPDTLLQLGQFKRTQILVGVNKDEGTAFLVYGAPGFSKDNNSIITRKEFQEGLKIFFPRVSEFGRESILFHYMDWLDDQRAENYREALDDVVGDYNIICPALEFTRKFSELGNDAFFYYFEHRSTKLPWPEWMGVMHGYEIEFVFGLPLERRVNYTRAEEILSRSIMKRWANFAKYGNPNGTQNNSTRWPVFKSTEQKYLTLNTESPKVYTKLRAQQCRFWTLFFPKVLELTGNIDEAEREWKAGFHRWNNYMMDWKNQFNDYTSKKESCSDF
Data set [3] in a line: Selectivity index, ratio of IC50 for horse serum BuChE using butyrylthiocholine iodide as substrate to IC50 for electric eel AChE using acetylthiocholine iodide as substrate.
For data set [4], the system named is MRC5. In words: Cytotoxicity against human MRC5 cells assessed as reduction in cell viability at 50 ug/ml relative to control. The format is toxicity, cell-based. The settings on record: at 50 µg/mL.
The nature of data set [5]: Lipophilicity, log P of the compound in n-octanol/water by HPLC method. The format is physicochemical.
The nature of data set [6]: Cytotoxicity against human MRC5 cells assessed as reduction in cell viability. Type of data set: toxicity, cell-based.
The target in data set [7] is Acetylcholinesterase (Electrophorus electricus) (UniProt O42275). In words: Inhibition of electric eel AChE using acetylthiocholine iodide as substrate at 10 uM preincubated for 20 mins followed by substrate addition and measured every 20 secs for 3 mins by Ellman's method relative to control. The settings on record: time 23.0 min.
Acetylcholinesterase (Electrophorus electricus), sequence (O42275 24-633 limits assumed): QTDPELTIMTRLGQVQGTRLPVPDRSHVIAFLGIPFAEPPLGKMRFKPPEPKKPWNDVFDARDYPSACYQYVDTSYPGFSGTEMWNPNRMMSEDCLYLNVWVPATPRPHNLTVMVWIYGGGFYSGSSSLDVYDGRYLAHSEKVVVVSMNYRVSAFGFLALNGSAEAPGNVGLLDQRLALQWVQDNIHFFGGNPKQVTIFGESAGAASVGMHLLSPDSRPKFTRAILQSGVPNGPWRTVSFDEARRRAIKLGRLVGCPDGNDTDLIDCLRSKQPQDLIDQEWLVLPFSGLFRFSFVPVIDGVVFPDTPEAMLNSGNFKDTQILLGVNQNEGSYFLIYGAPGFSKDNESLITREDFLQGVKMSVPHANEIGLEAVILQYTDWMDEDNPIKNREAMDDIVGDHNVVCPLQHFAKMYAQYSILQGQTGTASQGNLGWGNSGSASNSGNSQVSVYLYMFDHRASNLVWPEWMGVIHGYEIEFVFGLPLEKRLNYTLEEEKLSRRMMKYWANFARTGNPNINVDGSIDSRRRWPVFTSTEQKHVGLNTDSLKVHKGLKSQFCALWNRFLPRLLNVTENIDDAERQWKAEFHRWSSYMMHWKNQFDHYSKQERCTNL
The target in data set [8] is T1, Acetylcholinesterase. Nature of the data set: Binding affinity to electric eel AChE assessed as inhibition constant by Lineweaver-Burk plot analysis.

Each structure is given as a SMILES string. Structures can show the parent of a compound that is named as a salt.

For orientation: IC50 means the concentration that inhibits the measured activity by half. By logP is commonly meant a log measure of how a compound divides between an organic and an aqueous phase. A higher logP goes with a more lipophilic compound. The inhibition is how much of the control response was suppressed. A low value points to a weak effect. Usually Ki stands for a dissociation constant, usually derived from enzyme kinetics or from competition with a known ligand.

T1 sequence (O42275 whole entry): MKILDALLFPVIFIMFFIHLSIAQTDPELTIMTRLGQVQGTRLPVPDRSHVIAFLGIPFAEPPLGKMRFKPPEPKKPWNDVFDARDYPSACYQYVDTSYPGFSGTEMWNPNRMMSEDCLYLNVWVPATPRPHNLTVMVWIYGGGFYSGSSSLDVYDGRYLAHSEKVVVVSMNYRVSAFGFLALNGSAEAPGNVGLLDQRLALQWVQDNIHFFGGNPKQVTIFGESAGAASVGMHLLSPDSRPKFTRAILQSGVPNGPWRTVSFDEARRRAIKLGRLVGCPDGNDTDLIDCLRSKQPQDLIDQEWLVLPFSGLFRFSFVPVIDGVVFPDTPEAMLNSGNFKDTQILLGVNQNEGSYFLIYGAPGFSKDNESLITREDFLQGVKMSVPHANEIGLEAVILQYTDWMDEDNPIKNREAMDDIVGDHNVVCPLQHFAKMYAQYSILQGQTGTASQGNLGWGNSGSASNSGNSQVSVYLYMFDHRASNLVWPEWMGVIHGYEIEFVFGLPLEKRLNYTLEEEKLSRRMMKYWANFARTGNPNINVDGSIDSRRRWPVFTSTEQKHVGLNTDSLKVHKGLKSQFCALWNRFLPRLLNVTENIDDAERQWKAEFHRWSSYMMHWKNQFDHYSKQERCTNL

On to `COc1cc2c3c(c1OC)-c1ccccc1CC3N(C(=O)c1cc[n+](Cc3ccc(F)cc3)cc1)CC2.[Br-]` (racemic), for which the IC50 in data set [1] was found to be 660 nM; in data set [2], 4730 nM. Moreover, the Ratio IC50 in data set [3] is 7. In addition, the Activity in data set [4] came out at 2.46%. The logP in data set [5] stood at 2.3.
Turning to `COc1cc2c3c(c1OC)-c1ccccc1CC3N(C(=O)c1cc[n+](Cc3ccccc3Cl)cc1)CC2.[Br-]` (racemic), the figures for the IC50 in data set [1] and in data set [2] were 180 nM and 710 nM, respectively. Also, the Ratio IC50 in data set [3] was found to be 3.9. The Activity in data set [4] is 2.96%. The molecule further came in with a logP in data set [5] of 2.36.
With `COc1cccc2c1C(=O)c1c(O)c3c(c(O)c1C2=O)C[C@@](O)(C(=O)CO)C[C@@H]3O[C@H]1C[C@H](N)[C@H](O)[C@H](C)O1` [DOXORUBICIN HYDROCHLORIDE], the IC50 in data set [6] is 1.54 µg/mL.
With `COc1cc2c3c(c1OC)-c1ccccc1CC3N(C(=O)c1cc[n+](Cc3ccc(Cl)cc3)cc1)CC2` (racemic), in data set [7], the inhibition amounted to 31%. The molecule further showed a logP in data set [5] of 2.67.
`COc1cc2c3c(cc4ccccc4c3c1OC)N(C(=O)c1ccncc1)CC2`: the inhibition in data set [7] came to 16%.
Turning to `COc1cc2c3c(cc4ccccc4c3c1OC)N(C(=O)c1cc[n+](Cc3ccccc3F)cc1)CC2`, the IC50 in data set [1] is 2730 nM; in data set [2], 280 nM. Moreover, the Ratio IC50 in data set [3] turned out to be 0.1.
Turning to `COc1cc2c3c(c1OC)-c1ccccc1CC3N(C(=O)c1cc[n+](Cc3cccc(F)c3F)cc1)CC2` (racemic), the values for the half-maximal inhibitory concentration (IC50) in data set [1] and in data set [2] were 750 nM and 1540 nM, respectively. In addition, in data set [3], the Ratio IC50 worked out at 2.
On the same counts, the results for `COc1cc2c3c(c1OC)-c1ccccc1CC3N(C(=O)c1cc[n+](Cc3cccc(F)c3)cc1)CC2` (racemic) are 450 nM, 1340 nM and 3.
For the molecule `COc1cc2c3c(cc4ccccc4c3c1OC)NCC2`, the inhibition in data set [7] worked out at 12%.
In the case of `COc1cc2c3c(c1OC)-c1ccccc1CC3N(C(=O)c1cc[n+](Cc3ccccc3F)cc1)CC2` (racemic), the IC50 in data set [1] came to 410 nM; in data set [2] it was 1370 nM. Also, in data set [3], the Ratio IC50 was found to be 3.3.
In data set [7], `COc1cc2c3c(cc4ccccc4c3c1OC)N(C(=O)c1cc[n+](Cc3ccccc3)cc1)CC2` gave an inhibition of 69%.
Regarding `COc1cc2c3c(cc4ccccc4c3c1OC)N(C(=O)c1cc[n+](Cc3ccccc3Cl)cc1)CC2`, the IC50 in data set [1] was determined as 1640 nM; in data set [2] it was 440 nM. The Ratio IC50 in data set [3] amounted to 0.3.
Regarding `COc1cc2c3c(c1OC)-c1ccccc1CC3N(C(=O)c1cc[n+](Cc3ccccc3)cc1)CC2.[Br-]` (racemic), the IC50 in data set [1] is 350 nM; in data set [2] it was 1330 nM. Further, in data set [3], the Ratio IC50 was 3.8. The Activity in data set [4] is listed as 3.62%. In data set [5], the logP turned out to be 2.2.
On to `COc1cc2c3c(c1OC)-c1ccccc1C[C@@H]3N(C(=O)c1cc[n+](Cc3ccccc3)cc1)CC2`, for which the results for the IC50 in data set [1] and in data set [2] were 120 nM and 4900 nM, respectively. In data set [3], the Ratio IC50 was determined as 40.8. For the same molecule, in data set [8], the Ki came out at 170 nM. In addition, in data set [5], the logP came to 2.2.
On to `COc1cc2c3c(c1OC)-c1ccccc1CC3N(C(=O)c1cc[n+](Cc3cccc(Cl)c3)cc1)CC2` (racemic), for which the IC50 in data set [1] amounted to 2150 nM; in data set [2] it was 960 nM. Moreover, the Ratio IC50 in data set [3] was determined as 0.5. The log partition coefficient (logP) in data set [5] is 2.62.
As for `COc1cc2c3c(c1OC)-c1ccccc1C[C@H]3N(C(=O)c1cc[n+](Cc3ccccc3)cc1)CC2`, the IC50 was 7150 nM in data set [1] and 4950 nM in data set [2]. Further, the Ratio IC50 in data set [3] is 0.7. For the same molecule, the Ki in data set [8] came out at 2570 nM. Further, the logP in data set [5] was 2.2.
As for `COc1cc2c3c(c1OC)-c1ccccc1C[C@@H]3N(C(=O)c1cc[n+](Cc3ccccc3Cl)cc1)CC2.[Br-]`, the IC50 in data set [1] is 60 nM; in data set [2], 1820 nM. Also, in data set [3], the Ratio IC50 came to 30.3. Besides, in data set [8], the Ki came to 220 nM. Moreover, the Activity in data set [4] came out at 5.03%. The same molecule had a logP in data set [5] of 2.36.
On to `COc1cc2c3c(c1OC)-c1ccccc1CC3N(C(=O)c1cc[n+](Cc3c(F)cccc3F)cc1)CC2` (racemic), for which the IC50 in data set [1] is 800 nM; in data set [2] it was 970 nM. In addition, in data set [3], the Ratio IC50 stood at 1.2. The logP in data set [5] was 2.08.
For the molecule `COc1cc2c3c(c1OC)-c1ccccc1C[C@@H]3N(C(=O)c1cc[n+](Cc3ccc(F)cc3)cc1)CC2`, the IC50 in data set [1] was 370 nM; in data set [2], 8580 nM. Besides, the Ratio IC50 in data set [3] came to 23.2. In addition, the Ki in data set [8] amounted to 270 nM. In data set [5], this molecule returned a lipophilicity (logP) of 2.3.
For the molecule `COc1cc2c3c(c1OC)-c1ccccc1C[C@H]3N(C(=O)c1cc[n+](Cc3ccccc3Cl)cc1)CC2.[Br-]`, the IC50 in data set [1] came out at 2940 nM; in data set [2], 2490 nM. Also, the Ratio IC50 in data set [3] was 0.8. Also, in data set [8], the Ki was determined as 1650 nM. Further, in data set [4], the Activity is 5.3%. In data set [5], the logP stood at 2.36.
`COc1cc2c3c(c1OC)-c1ccccc1CC3N(C(=O)c1ccncc1)CC2` (racemic) came in with an inhibition in data set [7] of 5%.
Take `COc1cc2c3c(c1OC)-c1ccccc1C[C@H]3N(C(=O)c1cc[n+](Cc3ccc(F)cc3)cc1)CC2`: the IC50 is 12200 nM in data set [1] and 15400 nM in data set [2]. In addition, the Ratio IC50 in data set [3] was 1.3. In data set [8], the Ki worked out at 6870 nM. The molecule further returned a logP in data set [5] of 2.3.
